Data: PubChem BioAssay AID2060891 (Molecular Pharmacology Branch, DTP, NCI, 2025)

Test system: K98450-129-R-PDC complex spheroid growth, percent test/control
Assay: Anticancer human tumor K98450-129-R-PDC patient-derived colon adenocarcinoma cell line growth inhibition [RAS]
Settings: for IC50: curve of first compound; for viability, T/C: stronger effect = lower value
In short: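 Multi-cell-type spheroids: tumor cells plus HUVEC endothelial cells and mesenchymal stem cells. RAS-pathway inhibitors were combined with targeted agents, each dosed in half-log steps down from clinical Cmax, or from 10 microM when Cmax was unknown.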

[1] = second compound 0.000949 µM, first compound 0.0316 µM
[2] = second compound 0.000949 µM, first compound 0.1 µM
[3] = second compound 0.000949 µM, first compound 0.316 µM
[4] = second compound 0.000949 µM, first compound 1 µM
[5] = second compound 0.003 µM, first compound 0.0316 µM
[6] = second compound 0.003 µM, first compound 0.1 µM
[7] = second compound 0.003 µM, first compound 0.316 µM
[8] = second compound 0.003 µM, first compound 1 µM
[9] = second compound 0.00949 µM, first compound 0.0316 µM
[10] = second compound 0.00949 µM, first compound 0.1 µM
[11] = second compound 0.00949 µM, first compound 0.316 µM
[12] = second compound 0.00949 µM, first compound 1 µM
[13] = second compound 0.03 µM, first compound 0.0316 µM
[14] = second compound 0.03 µM, first compound 0.1 µM
[15] = second compound 0.03 µM, first compound 0.316 µM
[16] = second compound 0.03 µM, first compound 1 µM
[17] = second compound 0.0949 µM, first compound 0.0316 µM
[18] = second compound 0.0949 µM, first compound 0.1 µM
[19] = second compound 0.0949 µM, first compound 0.316 µM
[20] = second compound 0.0949 µM, first compound 1 µM
[21] = second compound 0.3 µM, first compound 0.0316 µM
[22] = second compound 0.3 µM, first compound 0.1 µM
[23] = second compound 0.3 µM, first compound 0.316 µM
[24] = second compound 0.3 µM, first compound 1 µM
[25] = second compound 0.000949 µM, first compound 0.00316 µM
[26] = second compound 0.000949 µM, first compound 0.01 µM
[27] = second compound 0.003 µM, first compound 0.00316 µM
[28] = second compound 0.003 µM, first compound 0.01 µM
[29] = second compound 0.00949 µM, first compound 0.00316 µM
[30] = second compound 0.00949 µM, first compound 0.01 µM
[31] = second compound 0.03 µM, first compound 0.00316 µM
[32] = second compound 0.03 µM, first compound 0.01 µM
[33] = second compound 0.0949 µM, first compound 0.00316 µM
[34] = second compound 0.0949 µM, first compound 0.01 µM
[35] = second compound 0.3 µM, first compound 0.00316 µM
[36] = second compound 0.3 µM, first compound 0.01 µM
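Also: spheroids exposed to agents for seven days before the viability readout.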
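For viability, T/C in this document: luminescence used as a proxy for viable cell amount.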

With NC1c2ccccc2OC12CCN(c1cnc3c(N4CCCc5ncccc54)n[nH]c3n1)CC2 (stereo unspecified) + CCn1c(-c2cccnc2C(C)OC)c2c3cc(ccc31)N1CCOC(CC(NC(=O)C(C(C)C)N(C)C(=O)C3(F)CCN(C(=O)C#CC(C)(C)N(C)C)CC3)C(=O)N3CCCC(N3)C(=O)OCC(C)(C)C2)C1 the IC50 (second compound 0.000949 µM) was less than 31.6 nM, the IC50 (second compound 0.003 µM) was less than 31.6 nM and the IC50 (second compound 0.00949 µM) was less than 31.6 nM. For the same molecule, the IC50 (second compound 0.03 µM) was less than 31.6 nM, the IC50 (second compound 0.0949 µM) was less than 31.6 nM and the IC50 (second compound 0.3 µM) was less than 31.6 nM. For the same molecule, the viability, T/C [1] was 44.8%, the viability, T/C [2] was 23.5% and the viability, T/C [3] was 11%. It also gave a viability, T/C [4] of 7.16%, a viability, T/C (second compound 0.000949 µM, first compound 3.16 µM) of 6.94% and a viability, T/C (second compound 0.000949 µM, first compound 10 µM) of 8.73%. The viability, T/C [5] was 21.5%, the viability, T/C [6] was 12.4% and the viability, T/C [7] was 7.71%. The viability, T/C [8] was 6.76%, the viability, T/C (second compound 0.003 µM, first compound 3.16 µM) was 6.52% and the viability, T/C (second compound 0.003 µM, first compound 10 µM) was 7.13%. For the same molecule, the viability, T/C [9] was 15.6%, the viability, T/C [10] was 9.32% and the viability, T/C [11] was 7.2%. It also gave a viability, T/C [12] of 6.45%, a viability, T/C (second compound 0.00949 µM, first compound 3.16 µM) of 6.54% and a viability, T/C (second compound 0.00949 µM, first compound 10 µM) of 7.85%. The viability, T/C [13] was 12.8%, the viability, T/C [14] was 9.35% and the viability, T/C [15] was 7.81%. For the same molecule, the viability, T/C [16] was 6.41%, the viability, T/C (second compound 0.03 µM, first compound 3.16 µM) was 6.04% and the viability, T/C (second compound 0.03 µM, first compound 10 µM) was 6.71%. It also gave a viability, T/C [17] of 11%, a viability, T/C [18] of 8.32% and a viability, T/C [19] of 6.62%. For the same molecule, the viability, T/C [20] was 6.26%, the viability, T/C (second compound 0.0949 µM, first compound 3.16 µM) was 5.17% and the viability, T/C (second compound 0.0949 µM, first compound 10 µM) was 7.13%. It also gave a viability, T/C [21] of 9.99%, a viability, T/C [22] of 6.92% and a viability, T/C [23] of 6.83%. For the same molecule, the viability, T/C [24] was 6.04%, the viability, T/C (second compound 0.3 µM, first compound 3.16 µM) was 5.35% and the viability, T/C (second compound 0.3 µM, first compound 10 µM) was 6.26%.
For O=C(c1ccc(F)c(F)c1Nc1ccc(I)cc1F)N1CC(O)([C@@H]2CCCCN2)C1 + CCn1c(-c2cccnc2C(C)OC)c2c3cc(ccc31)N1CCOC(CC(NC(=O)C(C(C)C)N(C)C(=O)C3(F)CCN(C(=O)C#CC(C)(C)N(C)C)CC3)C(=O)N3CCCC(N3)C(=O)OCC(C)(C)C2)C1, the IC50 (second compound 0.000949 µM) was 64.7 nM, the IC50 (second compound 0.003 µM) was 9.15 nM and the IC50 (second compound 0.00949 µM) was less than 3.16 nM. It also gave an IC50 (second compound 0.03 µM) of less than 3.16 nM, an IC50 (second compound 0.0949 µM) of less than 3.16 nM and an IC50 (second compound 0.3 µM) of less than 3.16 nM. For the same molecule, the viability, T/C [25] was 76.5%, the viability, T/C [26] was 53.9% and the viability, T/C [1] was 63.3%. The viability, T/C [2] was 42.2%, the viability, T/C [3] was 6.87% and the viability, T/C [4] was 2.59%. For the same molecule, the viability, T/C [27] was 57.1%, the viability, T/C [28] was 44.8% and the viability, T/C [5] was 40.7%. For the same molecule, the viability, T/C [6] was 18%, the viability, T/C [7] was 6.5% and the viability, T/C [8] was 2.42%. It also gave a viability, T/C [29] of 41.7%, a viability, T/C [30] of 32% and a viability, T/C [9] of 22%. The viability, T/C [10] was 14.2%, the viability, T/C [11] was 5.98% and the viability, T/C [12] was 2.66%. The viability, T/C [31] was 27.4%, the viability, T/C [32] was 33.5% and the viability, T/C [13] was 25.5%. For the same molecule, the viability, T/C [14] was 11%, the viability, T/C [15] was 6.18% and the viability, T/C [16] was 2.44%. For the same molecule, the viability, T/C [33] was 28.3%, the viability, T/C [34] was 24.3% and the viability, T/C [17] was 19.7%. It also gave a viability, T/C [18] of 10.6%, a viability, T/C [19] of 5.39% and a viability, T/C [20] of 2.34%. The viability, T/C [35] was 28.5%, the viability, T/C [36] was 26.5% and the viability, T/C [21] was 21.9%. It also gave a viability, T/C [22] of 10.1%, a viability, T/C [23] of 4.51% and a viability, T/C [24] of 2.36%.
For C=CC(=O)N1CCN(c2nc(OCC3CCCN3C)nc3c(F)c(-c4nc(N)cc(C)c4C(F)(F)F)c(Cl)cc23)C(C)C1 (stereo unspecified) + CCn1c(-c2cc(N3CCN(C)CC3)cnc2C(C)OC)c2c3cc(ccc31)-c1csc(n1)CC(NC(=O)C1CC1C)C(=O)N1CCCC(N1)C(=O)OCC(C)(C)C2, the IC50 (second compound 0.000949 µM) was 90.6 nM, the IC50 (second compound 0.003 µM) was 52.7 nM and the IC50 (second compound 0.00949 µM) was 30.4 nM. The IC50 (second compound 0.03 µM) was less than 3.16 nM, the IC50 (second compound 0.0949 µM) was less than 3.16 nM and the IC50 (second compound 0.3 µM) was less than 3.16 nM. The viability, T/C [25] was 88%, the viability, T/C [26] was 71.2% and the viability, T/C [1] was 69%. For the same molecule, the viability, T/C [2] was 44.4%, the viability, T/C [3] was 40.1% and the viability, T/C [4] was 34.5%. It also gave a viability, T/C [27] of 88%, a viability, T/C [28] of 68.5% and a viability, T/C [5] of 55.6%. It also gave a viability, T/C [6] of 41.8%, a viability, T/C [7] of 42.1% and a viability, T/C [8] of 34.8%. The viability, T/C [29] was 72.7%, the viability, T/C [30] was 61.7% and the viability, T/C [9] was 49.8%. It also gave a viability, T/C [10] of 37.2%, a viability, T/C [11] of 29.1% and a viability, T/C [12] of 20%. For the same molecule, the viability, T/C [31] was 44.8%, the viability, T/C [32] was 46.3% and the viability, T/C [13] was 37.3%. It also gave a viability, T/C [14] of 19.8%, a viability, T/C [15] of 20.9% and a viability, T/C [16] of 18.1%. The viability, T/C [33] was 16.1%, the viability, T/C [34] was 16.9% and the viability, T/C [17] was 14.4%. The viability, T/C [18] was 14.7%, the viability, T/C [19] was 14.3% and the viability, T/C [20] was 12%. It also gave a viability, T/C [35] of 10.9%, a viability, T/C [36] of 10.5% and a viability, T/C [21] of 11.6%. The viability, T/C [22] was 10.3%, the viability, T/C [23] was 11.7% and the viability, T/C [24] was 12.4%.
